Laboratory results taken from US6410219B1 (priority 1994, dated 2002).
Where a name gives a salt, the structure may show the parent alone.

What was measured:
[1] = system: R-17; type: cell-based, bacteriophage R17
[2] = system: CA-HIV; type: cell-based
[3] = system: red blood cells; experiment: IgG binding to red blood cell surfaces (Example 10); type: cell-based; conditions: 10-300 μg/ml
Method: Potassium levels on remaining samples were measured and the samples were stored at 4° C. Potassium measurements were repeated daily for one week or until significant differences were observed. Extracellular potassium data appears in Table 15, and FIG. 6. IgG binding in the samples was measured using Baxter Unival Anti-Human Globulin Anti-IgG for Direct Antiglobulin Test and Baxter Coornbs control Cells for Quality Control of Anti-Human Globulin Test (both available from Baxter Healthcare Corporation, Deerfield, Ill.). The results of IgG Binding as measured by FACScan™ (Becton Dickinson, Mountain View, Calif.) appear in Tables 15 and 16: […]

[4] = system: red blood cells
[5] = system: R17; type: cell-based, bacteriophage R17
[6] = system: red blood cells; conditions: mouse, in vivo
[7] = system: red blood cells; conditions: Swiss Webster, mouse, in vivo
[8] = system: R17; type: cell-based, bacteriophage R17; remark: listed apart in the source

In the case of `COc1c2occc2c(CN(C)CO)c2ccc(=O)oc12`, the “Dose for 5 log kill R-17” value [1] is reported as greater than 75 μM and the “Logs Virus Killed at Fixed Drug Dose, R-17” value [1] is reported as less than 0.5.
“4′-[3-(Bis-2-chloroethyl)amino-1-propylaminomethyl]-4,5′,8-trimethylpsoralen” was tested, and the “Logs Virus Killed at Fixed Drug Dose, CA-HIV” value (“Logs Virus Killed … CA-HIV” for short) [2] was 0.4 and the “Dose for 5 log kill R-17” value [1] was “≦2 μM”.
In the case of “4′-[4-(Bis-2-chloroethyl)amino-1-butylaminomethyl]-4,5′,8-trimethylpsoralen [Compound S-210]”, the “Logs Virus Killed … CA-HIV” value [2] is reported as 0.8.
With “5′-[4-(Bis-2chloroethyl)amino-1-butylaminomethyl]-4,4′, 8-trimethylpsoralen” the “Logs Virus Killed … CA-HIV” value [2] was 0.7, the “Dose for 5 log kill R-17” value [1] was “≦2 μM” and the “Logs Virus Killed at Fixed Drug Dose, R-17” value [1] was greater than 6.
With `O=C(O)CCCc1ccc(N(CCCl)CCCl)cc1` [Chlorambucil, chlorambucil] the “IgG binding of red cells” value [3] was “did not alter”, the “potassium leakage of red cells” value [4] was “did not alter” and the R17 inactivation [5] was no more than 0.4 logs.
For `CCN(CCCl)CCCNc1c2ccc(Cl)cc2nc2ccc(OC)cc12` [ICR-170, N-(2-chloroethyl)-N-ethyl-N′-(6-chloro-2-methoxy-9-acridinyl)-1,3-propanediamine dihydrochloride], the “% RECOVERY, LOW” value ([6]; Balb/c) was 93.1%, the “% RECOVERY, HIGH” value [6] was 90.4% and the “LOSS PER DAY” value [7] was 2.71%. It also gave an RECOVERY [7] of 86.0 ± 6.6.
In the case of `CCN(CC)CCCC(C)Nc1c2ccc(Cl)cc2nc2ccc(OC)cc12` (stereo not shown) [Q, quinicrine], the “light-dependent kill of R17” value [8] is reported as “no light-dependent kill”.
